# Data taken from patent US11679107B2 (Eisai R&D Management Co., Ltd., priority 2018, dated 2023).
# Where two headings read alike, the source gives them in different places.
# Assays:
# [1] = test system: Ad2 variant pre-mRNAs spliced in HeLa S3 nuclear extracts; experiment: In vitro splicing assay (IVS), RT-qPCR of spliced product; format: biochemical; conditions: for IC50: geometric mean; for Ratio Ad2.1/2.2: ratio of IVS IC50 Ad2.1 to Ad2.2
# Summary of the method: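 Read-out is one-step TaqMan RT-qPCR of spliced Ad2 mRNA with Ftz as reference, normalized to DMSO and fit by non-linear regression. Reactions held HeLa S3 nuclear extract, 2 ng Ad2-derived pre-mRNA and test compound, with 15 min preincubation. Splicing was started with ATP-containing activation buffer and run 90 min at 30 °C.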
# SF3b complexes = biological target: T1, SF3b complexes (Homo sapiens, UniProt O75533+Q7RTV0); experiment: Scintillation proximity assay (SPA) with [3H]-labelled pladienolide probe; format: binding; conditions: SF3B1 (WT); geometric mean; read-out: SPA-ATS GMean IC50 (nM) SF3B1 (WT)
# T1 construct: endogenous in cells; host or cells: Nuclear extracts; A HeLa S3 extract preparation is described for the in vitro splicing assay
# Summary of the method: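 SF3b complexes captured from nuclear extracts on anti-SF3B1 antibody SPA beads; test compounds pre-incubated 30 min before 2.5 nM [3H]-pladienolide probe added, then 30 min incubation. Bound probe read by scintillation; values from non-linear regression of concentration–response curves.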
# [2] = test system: NCI-H1568 cells (high MCL1); experiment: Cell proliferation and viability, CellTiter-Glo, 72 hours; format: cell-based; conditions: for GI50: geometric mean
# Summary of the method: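 ATP luminescence (CellTiter-Glo) was measured 72 h after treatment with compound at 10 μM–100 pM (11 points, half-log) in 0.1% DMSO. The Panc line was grown in RPMI-1640 plus insulin and 15% FBS, the other in 10% FBS. Data were normalised to time zero and vehicle controls, where −100% is cidal and 0% static.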
# [3] = Ad2.1 pre-mRNA substrate, read-out: qPCR-IVS-ATS GMean IC50 (nM) Ad2.1
# [4] = Ad2.2 pre-mRNA substrate, read-out: qPCR-IVS-ATS GMean IC50 (nM) Ad2.2
# [5] = NCI-H1568, read-out: CTGlo-ATS GMean GI50 (nM) 72 h NCIH1568.1, NCIH1568.1 cells, 72 h
# [6] = NCIH1568.1 cells, 72 h, −100% cidal, 0% static, 100% maximal growth
# [7] = NCI-H1568, 72 h, read-out: CTGlo-ATS GMean GI50 (nM) 72 h NCIH1568.1, NCIH1568.1 cells, 72 h
# [8] = 72 h, NCIH1568.1, -100% = cidal, 0% = static, 100% = uninhibited growth
# [9] = NCI-H1568, read-out: CTGlo-ATS GMean GI50 (nM) 72 h NCIH1568.1, 72 h, NCIH1568.1
# [10] = NCI-H1568, 72 h, read-out: CTGlo-ATS GMean GI50 (nM) 72 h NCIH1568.1, 72 h, NCIH1568.1
structure (smiles),measurement,setting,value
C/C(=C\c1cc(F)cc(N(C)C2CCN(S(=O)(=O)c3cn(C)cn3)CC2)c1)[C@H]1OC(=O)C[C@H](O)CC[C@H](C)[C@@H](OC(=O)N2CCN(C)CC2)/C=C/[C@@H]1C [Compound 184],IC50,[1]; [3],18.1 nM
same,IC50,[1]; [4],11.6 nM
same,IC50,SF3b complexes,14.4 nM
same,GI50,[2]; [5],59.8 nM
same,CTGlo-ATS Mean MinResponse % 72 h NCIH1568.1,[2]; [6],−85.535%
CC(=O)N1CCC(CN(C)c2cc(F)cc(/C=C(\C)[C@H]3OC(=O)C[C@H](O)CC[C@H](C)[C@@H](OC(=O)N4CCN(C)CC4)/C=C/[C@@H]3C)c2)CC1 [Compound 186],IC50,[1]; [3],41.8 nM
same,IC50,[1]; [4],17.4 nM
same,IC50,SF3b complexes,12.6 nM
same,GI50,[2]; [7],14.5 nM
same,CTGlo-ATS Mean MinResponse % 72 h NCIH1568.1,[2]; [6],−70.969%
"COCC(=O)N[C@H]1CCN(c2cc(F)cc(/C=C(\C)[C@H]3OC(=O)CC(O)CCC(C)[C@@H](OC(=O)N4CCN(C)CC4)/C=C/[C@@H]3C)c2)C1 (stereo in doubt) [Compound 218, [(2S,3S,4E,6R,7R,10S)-2-[(E)-1-[3-fluoro-5-[(3S)-3-[(2-methoxyacetyl)amino]pyrrolidin-1-yl]phenyl]prop-1-en-2-yl]-10-hydroxy-3,7-dimethyl-12-oxo-1-oxacyclododec-4-en-6-yl] 4-methylpiperazine-1-carboxylate]",IC50,[1]; [3],30.5 nM
same,IC50,[1]; [4],5.62 nM
same,Ratio Ad2.1/2.2,[1],5.425
same,IC50,SF3b complexes,2.79 nM
same,CTGlo-ATS Mean MinResponse % 72 h NCIH1568.1,[2]; [8],−75.420%
same,GI50,[2]; [9],6.2 nM
C/C(=C\c1cc(F)c2cnn(C3CCC(F)(F)CC3)c2c1)[C@H]1OC(=O)C[C@H](O)CC[C@H](C)[C@@H](OC(=O)N2CCN(C)CC2)/C=C/[C@@H]1C [Compound 195],IC50,[1]; [3],91.9 nM
same,IC50,[1]; [4],58.3 nM
same,IC50,SF3b complexes,69.3 nM
same,GI50,[2]; [5],6.59 nM
same,CTGlo-ATS Mean MinResponse % 72 h NCIH1568.1,[2]; [6],−95.559%
C/C(=C\c1cc(F)c2nnn([C@H]3CCCOC3)c2c1)[C@H]1OC(=O)C[C@H](O)CC[C@H](C)[C@@H](OC(=O)N2CCN(C)CC2)/C=C/[C@@H]1C [Compound 162],IC50,[1]; [3],9.29 nM
same,IC50,[1]; [4],7.4 nM
same,IC50,SF3b complexes,1.08 nM
same,GI50,[2]; [5],1.47 nM
same,CTGlo-ATS Mean MinResponse % 72 h NCIH1568.1,[2]; [6],−75.943%
C/C(=C\c1cc(F)cc(N2CCN(C(=O)C3(C)COC3)CC2)c1)[C@H]1OC(=O)C[C@H](O)CC[C@H](C)[C@@H](OC(=O)N2CCN(C)CC2)/C=C/[C@@H]1C [Compound 154],IC50,[1]; [3],20 nM
same,IC50,[1]; [4],8.72 nM
same,IC50,SF3b complexes,3.75 nM
same,GI50,[2]; [5],1.85 nM
same,CTGlo-ATS Mean MinResponse % 72 h NCIH1568.1,[2]; [6],−85.459%
COCCn1cnc2c(F)cc(/C=C(\C)[C@H]3OC(=O)C[C@H](O)CC[C@H](C)[C@@H](OC(=O)N4CCN(C)CC4)/C=C/[C@@H]3C)cc21 [Compound 142],IC50,[1]; [3],12.9 nM
same,IC50,[1]; [4],6.99 nM
same,IC50,SF3b complexes,1.35 nM
same,GI50,[2]; [5],2.19 nM
same,CTGlo-ATS Mean MinResponse % 72 h NCIH1568.1,[2]; [6],−69.213%
C/C(=C\c1cc(F)cc(N2CCN(CC(=O)O)CC2)c1)[C@H]1OC(=O)C[C@H](O)CC[C@H](C)[C@@H](OC(=O)N2CCNCC2)/C=C/[C@@H]1C [Compound 264],IC50,[1]; [3],33.4 nM
same,IC50,[1]; [4],72.4 nM
same,Ratio Ad2.1/2.2,[1],0.461
same,IC50,SF3b complexes,35.7 nM
same,CTGlo-ATS Mean MinResponse % 72 h NCIH1568.1,[2]; [8],−21.716%
same,GI50,[2]; [10],143 nM
C/C(=C\c1cc(F)cc(N2CCN(C(=O)CCO)CC2)c1)[C@H]1OC(=O)C[C@H](O)CC[C@H](C)[C@@H](OC(=O)N2CCN(C)CC2)/C=C/[C@@H]1C [Compound 155],IC50,[1]; [3],8.45 nM
same,IC50,[1]; [4],5.88 nM
same,IC50,SF3b complexes,2.21 nM
same,GI50,[2]; [5],1.91 nM
same,CTGlo-ATS Mean MinResponse % 72 h NCIH1568.1,[2]; [6],−83.475%
C/C(=C\c1cc(F)c2nnn([C@H](C)CO)c2c1)[C@H]1OC(=O)C[C@H](O)CC[C@H](C)[C@@H](OC(=O)N2CCN(C)CC2)/C=C/[C@@H]1C [Compound 150],IC50,[1]; [3],8.58 nM
same,IC50,[1]; [4],11 nM
same,IC50,SF3b complexes,1.32 nM
same,GI50,[2]; [5],2.19 nM
same,CTGlo-ATS Mean MinResponse % 72 h NCIH1568.1,[2]; [6],−68.000%
C/C(=C\c1cc(F)c2nnn([C@@H]3CCCOC3)c2c1)[C@H]1OC(=O)C[C@H](O)CC[C@H](C)[C@@H](OC(=O)N2CCN(C)CC2)/C=C/[C@@H]1C [Compound 161],IC50,[1]; [3],8.5 nM
same,IC50,[1]; [4],6.31 nM
same,IC50,SF3b complexes,2.51 nM
same,GI50,[2]; [5],0.772 nM
same,CTGlo-ATS Mean MinResponse % 72 h NCIH1568.1,[2]; [6],−85.783%
C/C(=C\c1cc(F)cc(N(C)C2CCN(C(=O)c3cnco3)CC2)c1)[C@H]1OC(=O)C[C@H](O)CC[C@H](C)[C@@H](OC(=O)N2CCN(C)CC2)/C=C/[C@@H]1C [Compound 188],IC50,[1]; [3],7.41 nM
same,IC50,[1]; [4],5.63 nM
same,IC50,SF3b complexes,2.61 nM
same,GI50,[2]; [5],2.77 nM
same,CTGlo-ATS Mean MinResponse % 72 h NCIH1568.1,[2]; [6],−79.922%
C/C(=C\c1cc(F)cc(OC2CCN(S(C)(=O)=O)CC2)c1)[C@H]1OC(=O)C[C@H](O)CC[C@H](C)[C@@H](OC(=O)N2CCN(C)CC2)/C=C/[C@@H]1C [Compound 194],IC50,[1]; [3],30.1 nM
same,IC50,[1]; [4],25.9 nM
same,IC50,SF3b complexes,10.7 nM
same,GI50,[2]; [5],6.73 nM
same,CTGlo-ATS Mean MinResponse % 72 h NCIH1568.1,[2]; [6],−75.631%
C/C(=C\c1cc(F)cc(N(C)C2CCN(C(=O)c3cnccn3)CC2)c1)[C@H]1OC(=O)C[C@H](O)CC[C@H](C)[C@@H](OC(=O)N2CCN(C)CC2)/C=C/[C@@H]1C [Compound 189],IC50,[1]; [3],16.9 nM
same,IC50,[1]; [4],10.3 nM
same,IC50,SF3b complexes,6.8 nM
same,GI50,[2]; [5],9.53 nM
same,CTGlo-ATS Mean MinResponse % 72 h NCIH1568.1,[2]; [6],−76.052%
C/C(=C\c1cc(F)c2nnn(C3CCCCC3)c2c1)[C@H]1OC(=O)C[C@H](O)CC[C@H](C)[C@@H](OC(=O)N2CCN(C)CC2)/C=C/[C@@H]1C [Compound 164],IC50,[1]; [3],20.7 nM
same,IC50,[1]; [4],27.9 nM
same,IC50,SF3b complexes,3.59 nM
same,GI50,[2]; [5],1.54 nM
same,CTGlo-ATS Mean MinResponse % 72 h NCIH1568.1,[2]; [6],−87.159%
"C/C(=C\c1cc(F)cc(N2CCN(C(=O)Cn3cccn3)CC2)c1)[C@H]1OC(=O)C[C@H](O)CC[C@H](C)[C@@H](OC(=O)N2CCCN(C)CC2)/C=C/[C@@H]1C [Compound 225, [(2S,3S,4E,6R,7S,10R)-2-[(E)-1-[3-fluoro-5-[4-(2-pyrazol-1-ylacetyl)piperazin-1-yl]phenyl]prop-1-en-2-yl]-10-hydroxy-3,7-dimethyl-12-oxo-1-oxacyclododec-4-en-6-yl] 4-methyl-1,4-diazepane-1-carboxylate]",IC50,[1]; [3],7.56 nM
same,IC50,[1]; [4],22.4 nM
same,Ratio Ad2.1/2.2,[1],0.337
same,IC50,SF3b complexes,18.2 nM
same,CTGlo-ATS Mean MinResponse % 72 h NCIH1568.1,[2]; [8],−73.768%
same,GI50,[2]; [10],11 nM
C/C(=C\c1cc(F)c2nnn(C3CCN(S(C)(=O)=O)CC3)c2c1)[C@H]1OC(=O)C[C@H](O)CC[C@H](C)[C@@H](OC(=O)N2CCN(C)CC2)/C=C/[C@@H]1C [Compound 157],IC50,[1]; [3],8.47 nM
same,IC50,[1]; [4],7.49 nM
same,IC50,SF3b complexes,2.27 nM
same,GI50,[2]; [5],1.29 nM
same,CTGlo-ATS Mean MinResponse % 72 h NCIH1568.1,[2]; [6],−90.424%
"C/C(=C\c1cc(F)cc(N2CCN(C(=O)Cn3cccn3)CC2)c1)[C@H]1OC(=O)C[C@H](O)CC[C@H](C)[C@@H](OC(=O)N2CCN(C)C(C)(C)C2)/C=C/[C@@H]1C [Compound 232, [(2S,3S,4E,6R,7S,10R)-2-[(E)-1-[3-fluoro-5-[4-(2-pyrazol-1-ylacetyl)piperazin-1-yl]phenyl]prop-1-en-2-yl]-10-hydroxy-3,7-dimethyl-12-oxo-1-oxacyclododec-4-en-6-yl] 3,3,4-trimethylpiperazine-1-carboxylate]",IC50,[1]; [3],15.3 nM
same,IC50,[1]; [4],9.5 nM
same,Ratio Ad2.1/2.2,[1],1.613
same,IC50,SF3b complexes,5.01 nM
same,CTGlo-ATS Mean MinResponse % 72 h NCIH1568.1,[2]; [8],−78.974%
same,GI50,[2]; [9],4.67 nM
C/C(=C\c1cc(F)cc(N2CCN(C(=O)[C@H]3CCOC3)CC2)c1)[C@H]1OC(=O)C[C@H](O)CC[C@H](C)[C@@H](OC(=O)N2CCN(C)CC2)/C=C/[C@@H]1C [Compound 151],IC50,[1]; [3],17.9 nM
same,IC50,[1]; [4],11.4 nM
same,IC50,SF3b complexes,3.41 nM
same,GI50,[2]; [7],2.24 nM
same,CTGlo-ATS Mean MinResponse % 72 h NCIH1568.1,[2]; [6],−83.213%
CCN(c1cc(F)cc(/C=C(\C)[C@H]2OC(=O)C[C@H](O)CC[C@H](C)[C@@H](OC(=O)N3CCN(C)CC3)/C=C/[C@@H]2C)c1)C1CCN(S(C)(=O)=O)CC1 [Compound 175],IC50,[1]; [3],9.5 nM
same,IC50,[1]; [4],8.12 nM
same,IC50,SF3b complexes,5.83 nM
same,GI50,[2]; [7],9.49 nM
same,CTGlo-ATS Mean MinResponse % 72 h NCIH1568.1,[2]; [6],−99.134%
